Experimental data: PubChem BioAssay (NCI)
“And” between values parts separate entries of the source, which are not always exact repeats. Identical values can stand only once.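 Cultured in 96-well plates, cells were exposed to test compound for 48 hours across five concentrations. GI50: concentration for 50% inhibition of growth. At the TGI there is no net growth.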

Tests used:
Assay in all cases: growth of human tumour cells (NCI), 48 h
M14 melanoma = tested on: M14 melanoma
HS 578T breast = tested on: HS 578T breast
OVCAR-8 ovarian = tested on: OVCAR-8 ovarian
T-47D breast = tested on: T-47D breast
A498 renal = tested on: A498 renal
SR leukemia = tested on: SR leukemia
EKVX NSCLC = tested on: EKVX NSCLC
786-0 renal = tested on: 786-0 renal
K-562 leukemia = tested on: K-562 leukemia
SF-295 CNS = tested on: SF-295 CNS

| Compound | TGI (M14 melanoma) [µM] | TGI (HS 578T breast) [µM] | TGI (OVCAR-8 ovarian) [µM] | TGI (T-47D breast) [µM] | TGI (A498 renal) | TGI (SR leukemia) | TGI (EKVX NSCLC) [µM] | TGI (786-0 renal) [µM] | TGI (K-562 leukemia) [µM] | TGI (SF-295 CNS) [µM] | GI50 (M14 melanoma) [µM] | GI50 (HS 578T breast) [µM] | GI50 (OVCAR-8 ovarian) [µM] | GI50 (T-47D breast) [µM] | GI50 (A498 renal) [µM] | GI50 (SR leukemia) [µM] | GI50 (786-0 renal) [µM] | GI50 (K-562 leukemia) [µM] | GI50 (SF-295 CNS) [µM] | GI50 (EKVX NSCLC) [µM] |
| --- | --- | --- | --- | --- | --- | --- | --- | --- | --- | --- | --- | --- | --- | --- | --- | --- | --- | --- | --- | --- |
| ON(CCc1ccccn1)Cc1ccccc1 | > 100 | > 100 | > 100 | > 100 | > 100 µM | > 100 µM | > 100 | > 100 | > 100 | > 100 | – | – | – | – | – | – | – | – | – | – |
| CN(C)CC1CCn2c(c(C3=C(c4cn(C)c5ccccc45)C(=O)NC3=O)c3ccccc32)C1 (centres undefined) | 8.04 | 7.36 | 9.87 | 10.7 | 9.22 µM | 12.7 µM | – | 8.17 | 10.5 | 9.06 | 4.11 | 2.31 | 4.62 | 5.1 | 4.47 | 4.26 | 4.26 | 4.97 | 4.46 | – |
| CO[C@H]1CC[C@@]2(C)C(=CC[C@H]3[C@@H]4C[C@H](O)C[C@@]4(C)CC[C@@H]32)C1 | 16.2 | 9.41 | 19.2 | 31.8 | 9.25 µM | 14.9 µM | 29 | 37.7 | 16 | 8.02 | 3.61 | 2.16 | 5.14 | 8.33 | 1.32 | 2.72 | 11.7 | 2.78 | 2.45 | 6.85 |
| O=C(O)CC1(C(=O)O)CCCCC1 | > 100 | > 100 | > 100 | > 100 | > 100 µM | > 100 µM | > 100 | > 100 | > 100 | > 100 | – | – | – | – | – | – | – | – | – | – |
| O=C(Nc1ccc(Br)c(Cl)c1)c1cc(F)ccc1O | 3.1 | > 15.5 | > 30.5 | 13.4 | 1.03 µM | – | 10 | 5.73 | > 50 | 1.89 | 0.585 | 0.719 | 1.21 | 0.638 | 0.162 | 0.547 | 1.06 | 0.293 | 0.933 | 0.77 |
| Cc1ccc2sc3c(NCCCNCCO)nc4ccccc4c3c(=O)c2c1 | 3.06 | 3.7 | 3.61 | 3.43 | 3.49 µM | 4.07 µM | 3.08 | 3.23 | 3.72 | 3.24 | 1.61 | 1.63 | 1.74 | 1.59 | 1.44 | 1.55 | 1.7 | 1.36 | 1.77 | 1.61 |
| CCCC(=O)NNc1[nH]c(-c2ccc(OC)cc2)cc1C(=O)OCC | 39.7 | 57.9 | 48.3 | 48.6 | > 100 µM | > 100 µM | 32.7 | 34.9 | > 100 | > 100 | 20.4 | 21.7 | 17.8 | 15.3 | 35.3 | 28.3 | 20.1 | 9.61 | 38 | 16.9 |
| O=C(/C=C\Sc1nccc(C(F)(F)F)n1)c1ccc(Br)cc1 | 35.5 | > 100 | > 100 | 38.5 | > 100 µM | 26.3 µM | 67.4 | 34.2 | 44.1 | > 100 | 17.9 | 40.5 | 45.9 | 11.2 | > 100 | 11.1 | 16.3 | 15 | > 100 | 23.3 |
| COC(=O)C#Cc1ccc([N+](=O)[O-])cc1 | 4.96 | 47.5 | 7.25 | 11.4 | 22.6 µM | 1.07 µM | 3.48 | 7.04 | 12.9 | 10.9 | – | – | – | – | – | – | – | – | – | – |
| CN1CCN(Cc2ccc(Nc3ncc(Cl)c(Nc4ccccc4S(=O)(=O)N(C)C)n3)cc2)CC1 | 0.277 | 1.18 | – | 0.965 | 0.327 µM | – | 0.366 | 1.28 | > 100 | > 100 | 0.0608 | 0.0984 | 0.0738 | 0.116 | 0.114 | < 0.01 | 0.0524 | 0.0386 | 0.0169 | 0.0317 |
| CCN(CC)CCOc1cc2c(C(=O)OC)c(C)oc2cc1C(C)=O | 16.9 | 31.4 | 30.3 | 7.75 | > 100 µM | 6.72 µM | 22.1 | 25.9 | 29.2 | 29.1 | 4.53 | 13.4 | 13.4 | 2.25 | 53 | 2.58 | 13.1 | 4.7 | 14.8 | 8.75 |
| Cn1cnc2c(NCc3ccccc3)nc(NCCO)nc21 | 120 | 465 | 391 | > 408 | 83.3 µM and 311 µM | > 87 µM and 237 µM | 170 | > 435 | 489 | > 500 | 51 | 162 | 90.5 | 206 | 28.8 | 69.1 | 105 | – | 122 | 57 |
| [N-]=[N+]=CC(=O)OCC(N)C(=O)O (centres undefined) | > 100 | > 100 | > 100 | > 100 | > 100 µM | > 100 µM | > 100 | > 100 | – | – | 0.809 | > 100 | 0.923 | 12.4 | 57.6 | 0.638 | 0.856 | – | – | 3.13 |
| Clc1ccc(CO/N=C(\Cn2ccnc2)c2ccc(Cl)cc2Cl)c(Cl)c1 | 3.71 | > 100 | – | 3.36 | 2.65 µM | 4.29 µM | 2.83 | 3.14 | – | – | 1.85 | 2.73 | – | 1.77 | 1.32 | 1.65 | 1.66 | – | – | 1.43 |
